Measured values published in patent US20150105252A1, “SUBSTITUTED PYRAZOLES AS HERBICIDES” (E I DU PONT DE NEMOURS AND COMPANY, priority 2013, published 2015).

Columns and labels:
Assay in all cases: Test F preemergence
[1] = test system: soybean; type: in vivo, Glycine max
From the text: (§1) Seeds of plant species selected from corn (Zea mays), soybean (Glycine max), velvetleaf (Abutilon theophrasti), lambsquarters (Chenopodium album), wild poinsettia (Euphorbia heterophylla), pigweed, palmer (palmer pigweed, Amaranthus palmeri), common waterhemp (Amaranthus rudis), surinam grass (Brachiaria decumbens), large crabgrass (Digitaria sanguinalis), crabgrass, Brazil (Brazilian crabgrass, Digitaria horizontalis), fall panicum (Panicum dichotomiflorum), giant foxtail (Setaria faberii), green foxtail (Setaria viridis), goosegrass (Eleusine indica), johnsongrass (Sorghum halepense), common ragweed (Ambrosia elation), barnyardgrass (Echinochloa crus-galli), southern sandbur (Cenchrus echinatus), arrowleaf sida (Sida rhombifolia), Italian ryegrass (Lolium multiflorum), dayflower, VA (Virginia (VA) dayflower, Commelina virginica), field bindweed (Convolvulus arvensis), cocklebur (common cocklebur, Xanthium strumarium), morningglory (Ipomoea coccinea), nightshade (eastern black nightshade, Solanum ptycanthum), kochia (Kochia scoparia), yellow nutsedge (Cyperus esculentus), and hairy beggarticks (Bidens pilosa), were planted into a silt loam soil and treated preemergence with test chemicals formulated in a non-phytotoxic solvent mixture which included a surfactant.
(§2) At the same time, plants from these crop and weed species and also horseweed (Canada horseweed, Conyza canadensis), smartweed (ladysthumb smartweed, Polygonum persicaria), waterhemp_RES1, (ALS & Triazine resistant common waterhemp, Amaranthus rudis), and waterhemp_RES2, (ALS & HPPD resistant common waterhemp, Amaranthus rudis) were treated with postemergence applications of test chemicals formulated in the same manner. Plants ranged in height from 2 to 18 cm for postemergence treatments (1- to 4-leaf stage). Treated plants and controls were maintained in a greenhouse for 14 to 21 days, after which time all species were compared to controls and visually evaluated. Plant response ratings, summarized in Table F, are based on a scale of 0 to 100 where 0 is no effect and 100 is complete control. A dash (-) response means no test result.

[2] = test system: lambsquarters; type: in vivo, Chenopodium album
From the text: as §1, §2

[3] = test system: wild poinsettia; type: in vivo, Euphorbia heterophylla
From the text: as §1, §2

[4] = test system: large crabgrass; type: in vivo, Digitaria sanguinalis
From the text: as §1, §2

[5] = test system: dayflower, VA; type: in vivo, Commelina virginica
From the text: as §1, §2

[6] = test system: morningglory; type: in vivo, Ipomoea coccinea
From the text: as §1, §2

[7] = test system: nightshade; type: in vivo, Solanum ptycanthum
From the text: as §1, §2

[8] = Preemergence, 31 g ai/ha, scale 0 to 100
[9] = Preemergence, 62 g ai/ha, scale 0 to 100
[10] = Preemergence, 125 g ai/ha, scale 0 to 100
[11] = preemergence, 8 g ai/ha, scale 0 to 100, 100 is complete control
[12] = preemergence, 16 g ai/ha, scale 0 to 100, 100 is complete control
[13] = Preemergence, 16 g ai/ha, scale 0 to 100
[14] = preemergence, scale 0 to 100, 100 is complete control
[15] = Preemergence, 250 g ai/ha, scale 0 to 100

| Compound | Plant response rating, Soybean [1, 9] | Plant response rating, Soybean [1, 10] | Plant response rating, Soybean [1, 11] | Plant response rating, Soybean [1, 12] | Plant response rating, Lambsquarters [2, 9] | Plant response rating, Lambsquarters [2, 10] | Plant response rating, Lambsquarters [2, 12] | Plant response rating, Wild Poinsettia [3, 9] | Plant response rating, Wild Poinsettia [3, 10] | Plant response rating, Wild Poinsettia [3, 11] | Plant response rating, Wild Poinsettia [3, 12] | Plant response rating, Large Crabgrass [4, 9] | Plant response rating, Large Crabgrass [4, 10] | Plant response rating, Large Crabgrass [4, 11] | Plant response rating, Dayflower, VA [5, 9] | Plant response rating, Dayflower, VA [5, 10] | Plant response rating, Morningglory [6, 9] | Plant response rating, Morningglory [6, 10] | Plant response rating, Nightshade [7, 9] | Plant response rating, Nightshade [7, 10] | further results |
| --- | --- | --- | --- | --- | --- | --- | --- | --- | --- | --- | --- | --- | --- | --- | --- | --- | --- | --- | --- | --- | --- |
| CCOc1cc(C(=O)NCC(F)(F)F)nn1Cc1ccnc(C(F)(F)F)c1 [Compound 104] | 70 | 90 | 0 | 0 | 100 | 100 | 60 | 80 | 98 | 0 | 10 | 100 | 100 | 70 | 98 | 100 | 80 | 100 | 100 | 100 | Plant response rating, Soybean [1, 8]: 25; Plant response rating, Lambsquarters [2, 8]: 100; Plant response rating, Lambsquarters [2, 11]: 35; Plant response rating, Wild Poinsettia [3, 8]: 15; Plant response rating, Large Crabgrass [4, 8]: 100; Plant response rating, Large Crabgrass [4, 12]: 90; Plant response rating, Dayflower, VA [5, 8]: 50; Plant response rating, Dayflower, VA [5, 11]: 0; Plant response rating, Dayflower, VA [5, 12]: 0; Plant response rating, Morningglory [6, 8]: 70; Plant response rating, Morningglory [6, 11]: 0; Plant response rating, Morningglory [6, 12]: 0; Plant response rating, Nightshade [7, 8]: 100; Plant response rating, Nightshade [7, 11]: 0; Plant response rating, Nightshade [7, 12]: 65 |
| CCNC(=O)c1cc(CCCl)n(Cc2ccnc(C(F)(F)F)c2)n1 [Compound 179] | 65 | 70 | 0 |  | 30 | 100 |  | 40 | 50 | 0 |  | 95 | 90 | 0 | 10 | 40 | 60 | 70 | 85 | 100 | Plant response rating, Soybean [1, 8]: 35; Plant response rating, Wild Poinsettia [3, 8]: 5; Plant response rating, Large Crabgrass [4, 8]: 40; Plant response rating, Dayflower, VA [5, 8]: 0; Plant response rating, Dayflower, VA [5, 11]: 0; Plant response rating, Morningglory [6, 8]: 40; Plant response rating, Morningglory [6, 11]: 0; Plant response rating, Nightshade [7, 8]: 65; Plant response rating, Nightshade [7, 11]: 0 |
| CCNC(=O)c1cc(CC)n(Cc2ccnc(C(F)(F)F)c2)n1 [Compound 196] | 50 | 50 | 0 | 0 | 98 | 100 | 5 | 35 | 65 | 0 | 5 | 100 | 100 | 35 | 35 | 75 | 70 | 80 | 75 | 95 | Plant response rating, Soybean [1, 13]: 20; Plant response rating, Lambsquarters [2, 11]: 0; Plant response rating, Large Crabgrass [4, 12]: 35; Plant response rating, Large Crabgrass [4, 14]: 95; Plant response rating, Dayflower, VA [5, 11]: 0; Plant response rating, Dayflower, VA [5, 12]: 0; Plant response rating, Morningglory [6, 13]: 35; Plant response rating, Morningglory [6, 11]: 5; Plant response rating, Morningglory [6, 12]: 10; Plant response rating, Nightshade [7, 13]: 50; Plant response rating, Nightshade [7, 11]: 0; Plant response rating, Nightshade [7, 12]: 35 |
| Cc1cc(C(=O)NC(C)C)nn1Cc1ccnc(C(F)(F)F)c1 [Compound 197] | 20 | 65 | 0 | 5 | 35 | 80 | 35 | 35 | 60 | 5 | 0 | 35 | 100 | 0 | 0 | 40 | 30 | 60 | 30 | 70 | Plant response rating, Soybean [1, 13]: 10; Plant response rating, Lambsquarters [2, 11]: 0; Plant response rating, Large Crabgrass [4, 12]: 0; Plant response rating, Large Crabgrass [4, 14]: 35; Plant response rating, Dayflower, VA [5, 11]: 0; Plant response rating, Dayflower, VA [5, 12]: 0; Plant response rating, Morningglory [6, 13]: 20; Plant response rating, Morningglory [6, 11]: 0; Plant response rating, Morningglory [6, 12]: 10; Plant response rating, Nightshade [7, 13]: 20; Plant response rating, Nightshade [7, 11]: 0; Plant response rating, Nightshade [7, 12]: 10 |
| CCc1cc(C(=O)NC2CC2)nn1Cc1ccnc(OCC(F)(F)F)c1 [Compound 200] | 0 | 65 |  | 0 | 65 | 70 | 0 | 15 | 20 |  | 0 | 20 | 100 |  | 0 | 10 | 10 | 60 | 20 | 75 | Plant response rating, Soybean [1, 15]: 75; Plant response rating, Soybean [1, 13]: 0; Plant response rating, Lambsquarters [2, 15]: 98; Plant response rating, Wild Poinsettia [3, 15]: 35; Plant response rating, Large Crabgrass [4, 15]: 100; Plant response rating, Large Crabgrass [4, 12]: 0; Plant response rating, Large Crabgrass [4, 14]: 35; Plant response rating, Dayflower, VA [5, 15]: 60; Plant response rating, Dayflower, VA [5, 12]: 0; Plant response rating, Morningglory [6, 15]: 75; Plant response rating, Morningglory [6, 13]: 0; Plant response rating, Morningglory [6, 12]: 0; Plant response rating, Nightshade [7, 15]: 98; Plant response rating, Nightshade [7, 13]: 0 |
